Assay results as given in patent publication US20250122191A1, “COMPOUNDS AS BCL-2 INHIBITORS” (Fochon Biosciences, Ltd, priority 2021, published 2025).

Test system: RS4;11-BCL-2 G101V cells
Assay: Cell proliferation assay (MTS), RS4;11-BCL-2 G101V engineered cells
Assay type: cell-based
Details: Homo sapiens, 120 h, read-out: RS4, 11 BCL2-G101V IC50
From the text: MTS testing kit was purchased from Promega (Madison, WI, USA). The RPMI-1640, Fetal bovine serum and Penicillin-Streptomycin were purchased from BI (Biological Industries, Beit Haemek, Israel). Puromycin was purchased from Beyotime (shanghai, China). Dimethyl sulfoxide (DMSO) was purchased from Sigma (St. Louis., MO, USA). RS4;11-BCL-2 G101V (Cobioer Lot. #: CBD2021063013P4), RS4;11-BCL-2 D103E (Cobioer Lot. #: CBD2021063013P4), RS4;11-BCL-2 D103Y (Cobioer Lot. #: CBD2022012101P4) and RS4;11-BCL-2 F104L (Cobioer Lot. #: CBD2021063014P4) cells were cultured in RPMI1640 supplemented with 1 ug/mL puromycin, 100 U/mL Penicillin-Streptomycin and 10% FBS.
To investigate whether a compound is able to inhibit the activity of BCL-2 mutation in cells, a mechanism-based assay using engineered cell lines stably overexpressing BCL-2 mutation (RS4;11-BCL-2 G101V, RS4;11-BCL-2 D103E, RS4;11-BCL-2 D103Y, and RS4;11-BCL-2 F104L) was developed. In this assay, the inhibition of BCL-2 mutation was reflected by the inhibition of cell proliferation of engineered RS4;11 cells. Cells were plated into 96-well plates at optimized cell density (RS4;11-BCL-2 G101V: 5000 cells/well; RS4;11-BCL-2 D103E: 7500 cells/well; RS4;11-BCL-2 D103Y: 7500 cells/well; RS4;11-BCL-2 F104L: 5000 cells/well). Plates were incubated at 37° C., with 5% CO2 for 4 h (RS4;11-BCL-2 G101V, RS4;11-BCL-2 F104L) and 24 h (RS4;11-BCL-2 D103E, RS4;11-BCL-2 D103Y), respectively. Compounds were serially diluted and added to the plates with the final concentrations of 10000, 3333.3, 1111.1, 370.4, 123.5, 41.2, 13.7, 4.6 and 1.5 nM. Plates were incubated at 37° C., with 5% CO2 for 120 h (RS4; 11-BCL-2 G101V, RS4; 11-BCL-2 F104L) and 72 h (RS4;11-BCL-2 D103E, RS4;11-BCL-2 D103Y), respectively. 20 μl MTS was added into each well and the plates were incubated at 37° C., with 5% CO2 exactly for 2 h. The absorbance was measured by a microplate reader at 490 nm. IC50 values were calculated using GraphPad Prism 8.0 software.

Row | SMILES | IC50 [nM]
1 | COc1nc2[nH]cc(F)c2cc1Oc1cc(N2CCC3(CC2)CC(N2CCN(C)C[C@H]2c2ccccc2C(C)C)C3)ccc1C(=O)NS(=O)(=O)c1cnc(NC[C@H]2CC[C@](C)(O)CC2)c([N+](=O)[O-])c1 [Example 137, 2-((3-fluoro-6-methoxy-1H-pyrrolo[2,3-b]pyridin-5-yl)oxy)-N-((6-((((1r,4r)-4-hydroxy-4-methylcyclohexyl)methyl)amino)-5-nitropyridin-3-yl)sulfonyl)-4-(2-((R)-2-(2-isopropylphenyl)-4-methylpiperazin-1-yl)-7-azaspiro[3.5]nonan-7-yl)benzamide] | 1
2 | CC(C)c1ccccc1[C@@H]1CN(C)CCN1C1CC2(CCN(c3ccc(C(=O)NS(=O)(=O)c4cnc(NC[C@H]5CC[C@](C)(O)CC5)c([N+](=O)[O-])c4)c(Oc4cnc5[nH]cc(F)c5c4)c3)CC2)C1 [Example 139, 2-((3-fluoro-1H-pyrrolo[2,3-b]pyridin-5-yl)oxy)-N-((6-((((1r,4r)-4-hydroxy-4-methylcyclohexyl)methyl)amino)-5-nitropyridin-3-yl)sulfonyl)-4-(2-((R)-2-(2-isopropylphenyl)-4-methylpiperazin-1-yl)-7-azaspiro[3.5]nonan-7-yl)benzamide] | 1
3 | COc1nc2[nH]cc(F)c2cc1Oc1cc(N2CCC3(CC2)CC(N2CCN(C4CC4)C[C@H]2c2ccccc2C(C)C)C3)ccc1C(=O)NS(=O)(=O)c1cnc(NC[C@H]2CC[C@](C)(O)CC2)c([N+](=O)[O-])c1 [Example 143, 4-(2-((R)-4-cyclopropyl-2-(2-isopropylphenyl)piperazin-1-yl)-7-azaspiro[3.5]nonan-7-yl)-2-((3-fluoro-6-methoxy-1H-pyrrolo[2,3-b]pyridin-5-yl)oxy)-N-((6-((((1r,4r)-4-hydroxy-4-methylcyclohexyl)methyl)amino)-5-nitropyridin-3-yl)sulfonyl)benzamide] | 1
4 | CC(C)c1ccccc1[C@@H]1CN(C2CC2)CCN1C1CC2(CCN(c3ccc(C(=O)NS(=O)(=O)c4cnc(NC[C@H]5CC[C@](C)(O)CC5)c([N+](=O)[O-])c4)c(Oc4cnc5[nH]cc(F)c5c4)c3)CC2)C1 [Example 145, 4-(2-((R)-4-cyclopropyl-2-(2-isopropylphenyl)piperazin-1-yl)-7-azaspiro[3.5]nonan-7-yl)-2-((3-fluoro-1H-pyrrolo[2,3-b]pyridin-5-yl)oxy)-N-((6-((((1r,4r)-4-hydroxy-4-methylcyclohexyl)methyl)amino)-5-nitropyridin-3-yl)sulfonyl)benzamide] | 1
5 | CC(C)c1ccccc1[C@@H]1CN(C2COC2)CCN1C1CC2(CCN(c3ccc(C(=O)NS(=O)(=O)c4cnc(NC[C@H]5CC[C@](C)(O)CC5)c([N+](=O)[O-])c4)c(Oc4cnc5[nH]cc(F)c5c4)c3)CC2)C1 [Example 205, 2-((3-fluoro-1H-pyrrolo[2,3-b]pyridin-5-yl)oxy)-N-((6-((((1r,4r)-4-hydroxy-4-methylcyclohexyl)methyl)amino)-5-nitropyridin-3-yl)sulfonyl)-4-(2-((R)-2-(2-isopropylphenyl)-4-(oxetan-3-yl)piperazin-1-yl)-7-azaspiro[3.5]nonan-7-yl)benzamide] | 1
6 | COc1nc2[nH]cc(F)c2cc1Oc1cc(N2CCC3(CC2)CC(N2CCN(Cc4ccc(C#N)cc4)C[C@H]2c2ccccc2C(C)C)C3)ccc1C(=O)NS(=O)(=O)c1cnc(NC[C@H]2CC[C@](C)(O)CC2)c([N+](=O)[O-])c1 [Example 236, 4-(2-((R)-4-(4-cyanobenzyl)-2-(2-isopropylphenyl)piperazin-1-yl)-7-azaspiro[3.5]nonan-7-yl)-2-((3-fluoro-6-methoxy-1H-pyrrolo[2,3-b]pyridin-5-yl)oxy)-N-((6-((((1r,4r)-4-hydroxy-4-methylcyclohexyl)methyl)amino)-5-nitropyridin-3-yl)sulfonyl)benzamide] | 1
7 | CCOc1nc2[nH]cc(F)c2cc1Oc1cc(N2CCC3(CC2)CC(N2CCN(Cc4ccc(OC)c5oc(C)nc45)C[C@H]2c2ccccc2C(C)C)C3)ccc1C(=O)NS(=O)(=O)c1cnc(NC[C@H]2CC[C@](C)(O)CC2)c([N+](=O)[O-])c1 [Example 246, 2-((6-ethoxy-3-fluoro-1H-pyrrolo[2,3-b]pyridin-5-yl)oxy)-N-((6-((((1r,4r)-4-hydroxy-4-methylcyclohexyl)methyl)amino)-5-nitropyridin-3-yl)sulfonyl)-4-(2-((R)-2-(2-isopropylphenyl)-4-((7-methoxy-2-methylbenzo[d]oxazol-4-yl)methyl)piperazin-1-yl)-7-azaspiro[3.5]nonan-7-yl)benzamide] | 2
8 | COc1cc(CN2CCN(C3CC4(CCN(c5ccc(C(=O)NS(=O)(=O)c6cnc(NC[C@H]7CC[C@](C)(O)CC7)c([N+](=O)[O-])c6)c(Oc6cnc7[nH]cc(F)c7c6)c5)CC4)C3)[C@H](c3ccccc3C(C)C)C2)ncc1C1CC1 [Example 251, 4-(2-((R)-4-((5-cyclopropyl-4-methoxypyridin-2-yl)methyl)-2-(2-isopropylphenyl)piperazin-1-yl)-7-azaspiro [3.5]nonan-7-yl)-2-((3-fluoro-1H-pyrrolo[2,3-b]pyridin-5-yl)oxy)-N-((6-((((1r,4r)-4-hydroxy-4-methylcyclohexyl)methyl)amino)-5-nitropyridin-3-yl)sulfonyl)benzamide] | 1

Further molecules by falling IC50, results first:

Row | IC50 [nM] | SMILES
9 | 1 | COc1nc2[nH]cc(F)c2cc1Oc1cc(N2CCC3(CC2)CC(N2CCN(C4CCC(O)CC4)C[C@H]2c2ccccc2C(C)C)C3)ccc1C(=O)NS(=O)(=O)c1cnc(NC[C@H]2CC[C@](C)(O)CC2)c([N+](=O)[O-])c1 (single isomer, unassigned) [Example 332]
10 | 1 | COc1ccc(CN2CCN(C3CC4(CCN(c5ccc(C(=O)NS(=O)(=O)c6cnc(NC[C@H]7CC[C@](C)(O)CC7)c([N+](=O)[O-])c6)c(Oc6cc7c(F)c[nH]c7nc6OC)c5)CC4)C3)[C@H](c3ccccc3C3CC3)C2)cc1 [Example 52, 4-(2-((R)-2-(2-cyclopropylphenyl)-4-(4-methoxybenzyl)piperazin-1-yl)-7-azaspiro[3.5]nonan-7-yl)-2-((3-fluoro-6-methoxy-1H-pyrrolo[2,3-b]pyridin-5-yl)oxy)-N-((6-((((1r,4r)-4-hydroxy-4-methylcyclohexyl)methyl)amino)-5-nitropyridin-3-yl)sulfonyl)benzamide]
11 | 1 | COc1nc2[nH]cc(F)c2cc1Oc1cc(N2CCC3(CC2)CC(N2CCN(Cc4ccnc(N)c4)C[C@H]2c2ccccc2C(C)C)C3)ccc1C(=O)NS(=O)(=O)c1cnc(NC[C@H]2CC[C@](C)(O)CC2)c([N+](=O)[O-])c1 [Example 70, 4-(2-((R)-4-((2-aminopyridin-4-yl)methyl)-2-(2-isopropylphenyl)piperazin-1-yl)-7-azaspiro[3.5]nonan-7-yl)-2-((3-fluoro-6-methoxy-1H-pyrrolo[2,3-b]pyridin-5-yl)oxy)-N-((6-((((1r,4r)-4-hydroxy-4-methylcyclohexyl)methyl)amino)-5-nitropyridin-3-yl)sulfonyl)benzamide]
12 | 1 | CCOc1nc2[nH]cc(F)c2cc1Oc1cc(N2CCC3(CC2)CC(N2CCN(Cc4ccc(OC)cc4F)C[C@H]2c2ccccc2C(C)C)C3)ccc1C(=O)NS(=O)(=O)c1cnc(NC[C@H]2CC[C@](C)(O)CC2)c([N+](=O)[O-])c1 [Example 106, 2-((6-ethoxy-3-fluoro-1H-pyrrolo[2,3-b]pyridin-5-yl)oxy)-4-(2-((R)-4-(2-fluoro-4-methoxybenzyl)-2-(2-isopropylphenyl)piperazin-1-yl)-7-azaspiro[3.5]nonan-7-yl)-N-((6-((((1r,4r)-4-hydroxy-4-methylcyclohexyl)methyl)amino)-5-nitropyridin-3-yl)sulfonyl)benzamide]
13 | 1 | COc1nc2[nH]cc(F)c2cc1Oc1cc(N2CCC3(CC2)CC(N2CCN(C4COC4)C[C@H]2c2ccccc2C(C)C)C3)ccc1C(=O)NS(=O)(=O)c1cnc(NC[C@H]2CC[C@](C)(O)CC2)c([N+](=O)[O-])c1 [Example 131, 2-((3-fluoro-6-methoxy-1H-pyrrolo[2,3-b]pyridin-5-yl)oxy)-N-((6-((((1r,4r)-4-hydroxy-4-methylcyclohexyl)methyl)amino)-5-nitropyridin-3-yl)sulfonyl)-4-(2-((R)-2-(2-isopropylphenyl)-4-(oxetan-3-yl)piperazin-1-yl)-7-azaspiro[3.5]nonan-7-yl)benzamide]
